Measured values reported in patent publication US10738040B2, “Compounds, compositions, and methods for increasing CFTR activity” (Proteostasis Therapeutics, Inc., priority 2014, dated 2020).

Target: T1, ΔF508-CFTR (Homo sapiens, UniProt P13569, DEL508-508)
T1 construct: Primary lung epithelial cells homozygous for the Cystic Fibrosis-causing ΔF508 mutation were differentiated; endogenous in cells; host or cells: primary human lung (bronchial) epithelial cells homozygous for ΔF508, differentiated at air-liquid interface
T1 sequence (P13569 with tags, fused parts or gaps DEL508-508): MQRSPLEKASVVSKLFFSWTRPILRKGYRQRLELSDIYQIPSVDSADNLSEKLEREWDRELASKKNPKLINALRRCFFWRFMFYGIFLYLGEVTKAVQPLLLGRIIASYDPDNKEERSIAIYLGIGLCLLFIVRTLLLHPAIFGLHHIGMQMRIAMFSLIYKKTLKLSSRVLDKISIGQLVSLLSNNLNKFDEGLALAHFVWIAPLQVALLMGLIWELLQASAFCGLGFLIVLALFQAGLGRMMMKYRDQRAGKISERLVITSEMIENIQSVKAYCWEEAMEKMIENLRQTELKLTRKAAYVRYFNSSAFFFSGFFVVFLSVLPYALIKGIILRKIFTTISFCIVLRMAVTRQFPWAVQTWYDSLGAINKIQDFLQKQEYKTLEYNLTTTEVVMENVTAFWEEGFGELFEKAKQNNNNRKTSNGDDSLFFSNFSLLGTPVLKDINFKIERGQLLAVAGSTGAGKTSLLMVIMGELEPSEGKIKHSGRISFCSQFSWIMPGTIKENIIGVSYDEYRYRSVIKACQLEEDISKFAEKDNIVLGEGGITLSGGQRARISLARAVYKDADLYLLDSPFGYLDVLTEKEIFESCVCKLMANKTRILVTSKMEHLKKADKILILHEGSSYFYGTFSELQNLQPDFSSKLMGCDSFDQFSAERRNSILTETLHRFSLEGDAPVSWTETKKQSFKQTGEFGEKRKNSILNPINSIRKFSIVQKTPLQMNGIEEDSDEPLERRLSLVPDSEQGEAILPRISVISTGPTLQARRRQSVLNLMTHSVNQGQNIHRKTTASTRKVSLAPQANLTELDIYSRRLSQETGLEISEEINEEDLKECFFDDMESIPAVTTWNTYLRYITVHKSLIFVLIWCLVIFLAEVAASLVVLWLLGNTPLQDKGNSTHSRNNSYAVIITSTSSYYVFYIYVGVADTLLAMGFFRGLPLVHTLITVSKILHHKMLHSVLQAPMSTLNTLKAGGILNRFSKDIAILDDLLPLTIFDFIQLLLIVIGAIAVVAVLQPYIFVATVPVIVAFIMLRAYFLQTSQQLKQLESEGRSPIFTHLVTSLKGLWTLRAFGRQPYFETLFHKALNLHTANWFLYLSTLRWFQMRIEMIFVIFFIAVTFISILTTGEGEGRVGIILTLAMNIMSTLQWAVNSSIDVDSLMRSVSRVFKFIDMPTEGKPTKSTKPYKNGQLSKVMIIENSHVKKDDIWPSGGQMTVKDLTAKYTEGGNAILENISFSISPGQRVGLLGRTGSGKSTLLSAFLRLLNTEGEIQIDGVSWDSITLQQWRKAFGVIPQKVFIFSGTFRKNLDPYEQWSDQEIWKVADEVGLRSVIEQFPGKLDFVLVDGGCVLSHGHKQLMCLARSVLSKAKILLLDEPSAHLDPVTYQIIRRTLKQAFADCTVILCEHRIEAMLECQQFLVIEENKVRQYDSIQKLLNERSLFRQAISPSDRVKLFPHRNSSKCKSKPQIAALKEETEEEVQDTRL
Assay: Ussing measurements (short-circuit current, CFTRinh-172-inhibitable)
Assay type: cell-based
Conditions: compound at 10 uM and VX-809 at 3 uM, relative to VX-809 (3 uM); hBEs homozygous for ΔF508, 24 hours treatment; CFTRinh-172-inhibitable current
Method: As discussed above, Ussing measurements can be used to measure CFTR activity. In this method, primary lung epithelial cells (hBEs) homozygous for the Cystic Fibrosis-causing ΔF508 mutation were differentiated for a minimum of 4 weeks in an air-liquid interface on SnapWell filter plates prior to the Ussing measurements. Cells were apically mucus-washed for 30 minutes prior to treatment with compounds. The basolateral media was removed and replaced with media containing the compound of interest diluted to its final concentration from DMSO stocks. Treated cells were incubated at 37° C. and 5% CO2 for 24 hours. At the end of the treatment period, the cells on filters were transferred to the Ussing chamber and equilibrated for 30 minutes. The short-circuit current was measured in voltage clamp-mode (Vhold=0 mV), and the entire assay was conducted at a temperature of 36° C.-36.5° C. Once the voltages stabilized, the chambers were clamped, and data was recorded by pulse readings every 5 seconds. Following baseline current stabilization, the following additions were applied and the changes in current and resistance of the cells was monitored: • 1. Benzamil to the apical chamber to inhibit ENaC sodium channel. • 2. Forskolin to both chambers to activate ΔF508-CFTR by phosphorylation. • 3. Genistein to both chambers to potentiate ΔF508-CFTR channel opening. • 4. CFTRinh-172 to the apical chamber to inhibit ΔF508-CFTR Cl— conductance. The inhibitable current (that current that is blocked by CFTRinh-172) is measured as the specific activity of the ΔF508-CFTR channel, and increases in response to compound in this activity over that observed in vehicle-treated samples are identified as the correction of ΔF508-CFTR function imparted by the compound tested.

| Compound | Ussing (% VX-809) |
| --- | --- |
| O=C(NC1CCC(n2cc(CO)nn2)CC1)c1cc(-c2ccccc2)on1 (centres unmarked) | # (activity 100-200% of VX-809 (3 uM) with compound at 10 uM and VX-809 at 3 uM) |
| CC(C)O[C@H](C)c1nnc([C@H]2C[C@H](NC(=O)c3cc(-c4ccccc4)on3)C2)o1 | ## (activity ≥200% of VX-809 (3 uM) with compound at 10 uM and VX-809 at 3 uM) |
| O=C(NC1CCC(c2nnc(CO)o2)C1)c1cc(-c2ccccc2)on1 (centres unmarked) | # (activity 100-200% of VX-809 (3 uM) with compound at 10 uM and VX-809 at 3 uM) |
| O=C(N[C@H]1C[C@H](c2nnc(C3COC3)o2)C1)c1cc(-c2ccccc2)on1 | ## (activity ≥200% of VX-809 (3 uM) with compound at 10 uM and VX-809 at 3 uM) |
| O=C(N[C@H]1C[C@H](Cc2nnc(CO)s2)C1)c1cc(-c2ccccc2)on1 | ## (activity ≥200% of VX-809 (3 uM) with compound at 10 uM and VX-809 at 3 uM) |
| O=C(N[C@H]1C[C@H](c2nnc(C3CS(=O)(=O)C3)o2)C1)c1cc(-c2ccccc2)on1 | ## (activity ≥200% of VX-809 (3 uM) with compound at 10 uM and VX-809 at 3 uM) |
| O=C(N[C@H]1C[C@H](n2ccnc2)C1)c1cc(-c2ccccc2)on1 | # (activity 100-200% of VX-809 (3 uM) with compound at 10 uM and VX-809 at 3 uM) |
| C[C@@H](O)c1cnnn1[C@H]1C[C@@H](NC(=O)c2cc(-c3ccccc3)on2)C1 | ## (activity ≥200% of VX-809 (3 uM) with compound at 10 uM and VX-809 at 3 uM) |
| CN1CC(c2nnc([C@H]3C[C@H](NC(=O)c4cc(-c5ccccc5)on4)C3)o2)C1 | ## (activity ≥200% of VX-809 (3 uM) with compound at 10 uM and VX-809 at 3 uM) |
| O=C(NC1CC(c2nnc(CO)o2)C1)c1cc(-c2ccccc2)on1 (centres unmarked) | ## (activity ≥200% of VX-809 (3 uM) with compound at 10 uM and VX-809 at 3 uM) |
| O=C(NC1CCC(n2nncc2CO)C1)c1cc(-c2ccccc2)on1 (centres unmarked) | ## (activity ≥200% of VX-809 (3 uM) with compound at 10 uM and VX-809 at 3 uM) |
| CCCCNC(=O)OCc1cn([C@H]2C[C@H](NC(=O)c3cc(-c4ccccc4)on3)C2)nn1 | ## (activity ≥200% of VX-809 (3 uM) with compound at 10 uM and VX-809 at 3 uM) |
| C[C@@H](O)c1cn([C@H]2C[C@@H](NC(=O)c3cc(-c4ccccc4)on3)C2)nn1 | ## (activity ≥200% of VX-809 (3 uM) with compound at 10 uM and VX-809 at 3 uM) |
| O=C(NC1CCC(n2nncc2CO)CC1)c1cc(-c2ccccc2)on1 (centres unmarked) | # (activity 100-200% of VX-809 (3 uM) with compound at 10 uM and VX-809 at 3 uM) |
| O=C(N[C@H]1C[C@@H](c2nnc(CO)s2)C1)c1cc(-c2ccccc2)on1 | ## (activity ≥200% of VX-809 (3 uM) with compound at 10 uM and VX-809 at 3 uM) |
| O=C(NC1CCC(n2cc(CO)nn2)C1)c1cc(-c2ccccc2)on1 (centres unmarked) | # (activity 100-200% of VX-809 (3 uM) with compound at 10 uM and VX-809 at 3 uM) |
| C[C@@H](O)c1nnc(C2CC(NC(=O)c3cc(-c4ccc(F)cc4)on3)C2)o1 (some centres unmarked) | ## (activity ≥200% of VX-809 (3 uM) with compound at 10 uM and VX-809 at 3 uM) |
